Test results reported in ChEMBL document CHEMBL4800725 (2021).
Active and inactive are the calls of the source. The calls are words filed in the database; no cut-off is given here.

What was measured:
[1] = target: T1, Pantetheinase (Mus musculus, UniProt Q9Z0K8); assay: Mouse recombinant vanin-1 assay
T1 sequence (Q9Z0K8 whole entry): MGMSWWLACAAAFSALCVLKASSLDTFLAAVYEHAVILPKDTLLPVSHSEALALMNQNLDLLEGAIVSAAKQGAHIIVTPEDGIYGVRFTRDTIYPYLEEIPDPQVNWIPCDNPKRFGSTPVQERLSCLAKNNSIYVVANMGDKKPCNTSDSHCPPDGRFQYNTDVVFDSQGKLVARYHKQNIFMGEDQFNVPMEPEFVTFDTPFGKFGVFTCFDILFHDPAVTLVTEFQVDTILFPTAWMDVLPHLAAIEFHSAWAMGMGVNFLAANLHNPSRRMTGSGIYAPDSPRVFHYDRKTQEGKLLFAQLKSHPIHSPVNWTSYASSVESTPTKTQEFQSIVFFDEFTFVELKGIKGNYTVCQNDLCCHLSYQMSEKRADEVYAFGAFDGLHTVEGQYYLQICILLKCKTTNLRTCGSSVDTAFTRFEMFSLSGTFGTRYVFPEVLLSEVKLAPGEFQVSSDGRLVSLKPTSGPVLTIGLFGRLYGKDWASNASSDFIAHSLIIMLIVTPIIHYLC

[2] = target: T1, Pantetheinase; assay: Mouse plasma vanin-1 assay
[3] = target: T2, Vanin 1 (Rattus norvegicus, UniProt Q4KLZ0)
T2 sequence (Q4KLZ0 whole entry): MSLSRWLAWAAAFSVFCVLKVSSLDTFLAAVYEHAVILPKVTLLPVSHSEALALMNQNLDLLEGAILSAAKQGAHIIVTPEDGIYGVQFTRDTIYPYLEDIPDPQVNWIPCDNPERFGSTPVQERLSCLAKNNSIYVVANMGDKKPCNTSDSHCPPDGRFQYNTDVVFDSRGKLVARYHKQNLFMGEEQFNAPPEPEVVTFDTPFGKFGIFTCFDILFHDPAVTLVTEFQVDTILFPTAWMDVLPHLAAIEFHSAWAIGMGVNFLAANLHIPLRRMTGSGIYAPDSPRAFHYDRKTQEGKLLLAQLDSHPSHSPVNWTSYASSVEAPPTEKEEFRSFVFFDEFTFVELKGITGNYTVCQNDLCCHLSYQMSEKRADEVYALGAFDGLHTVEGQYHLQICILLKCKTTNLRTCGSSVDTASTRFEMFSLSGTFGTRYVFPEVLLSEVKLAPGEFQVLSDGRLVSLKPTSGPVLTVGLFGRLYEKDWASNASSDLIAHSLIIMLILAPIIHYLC

[4] = target: T3, Pantetheinase (Homo sapiens, UniProt O95497); assay: Human recombinant vanin-1 assay
T3 sequence (O95497 whole entry): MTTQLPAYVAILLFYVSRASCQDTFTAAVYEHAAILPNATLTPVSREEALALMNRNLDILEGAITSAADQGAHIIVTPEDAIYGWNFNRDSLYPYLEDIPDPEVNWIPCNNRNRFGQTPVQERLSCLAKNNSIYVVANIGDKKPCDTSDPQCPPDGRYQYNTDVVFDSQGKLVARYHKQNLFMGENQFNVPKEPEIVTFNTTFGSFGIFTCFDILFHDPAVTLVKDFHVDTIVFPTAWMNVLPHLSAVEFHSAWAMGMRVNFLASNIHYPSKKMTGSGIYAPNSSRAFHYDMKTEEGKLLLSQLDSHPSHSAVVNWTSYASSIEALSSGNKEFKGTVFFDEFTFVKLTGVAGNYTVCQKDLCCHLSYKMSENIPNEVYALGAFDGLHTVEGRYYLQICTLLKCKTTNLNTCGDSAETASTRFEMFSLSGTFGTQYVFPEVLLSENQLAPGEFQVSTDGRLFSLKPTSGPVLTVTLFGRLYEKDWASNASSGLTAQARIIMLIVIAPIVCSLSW

[5] = target: T3, Pantetheinase; assay: Human plasma vanin-1 assay

Compound	IC50 [1]	IC50 [2]	IC50 [3]	IC50 [4]	IC50 [5]
O=C(c1cnc(NCc2cnccn2)nc1)N1CCC2(CCOCC2)C1 [PFI-653]	24.5 nM (active)	53.4 nM (active)	12 nM (active)		
Cc1nc(NCc2cnccn2)ncc1C(=O)N1CCC2(CCOCC2)C1 [PFI-653-N]	15000 nM (not active)	15000 nM (not active)		17600 nM (not active)	3000 nM (not active)
